According to US20240254119A1 (THIRD HARMONIC BIO, INC., priority 2022, published 2024):

Experiments:
PDGFRα [1] = biological target: T1, PDGFRα (Homo sapiens, UniProt P16234); test: HTRF biochemical assay, PDGFRα; details: Table 4, read-out: PDFGRα Biochemical IC50 avg
T1 construct: purchased Millipore 14-467 (lot 26321_ACTI)
Method: (§1) Exemplary compounds were tested for ability to inhibit the phosphorylation of a peptide substrate by the tyrosine kinase wt KIT, PDGFRα, or CSF-1R. Assay procedures and results are described below.
(§2) Enzyme, substrate, and cofactors (ATP and Mn^2+) are combined in a well of a microtiter plate and incubated for 3 hours at 25° C. At the end of the incubation, the reaction is quenched by the addition of an EDTA-containing buffer.
(§3) The substrate used in the CSF-1R and PDGFRα assay is FAM-[…]-CONH2 (FAM is carboxyfluorescein). Peptide should be >95% purity. The substrate for the KIT assay is FAM-[…]-NH2.
(§4) • 1. To a well of a 384-wellplate add 5 μL of 2× enzyme buffer (or control). • 2. Add 100 nL of 100× compound. Enzyme and compound may be pre-incubated at this time if desired. • 3. Add 5 μL of 2× substrate buffer. • 4. Incubate plate at 25° C. for 3 hours. • 5. Add 10 uL of anti-phosphotyrosine antibody buffer. • 6. Read plate in BioTek Synergy Reader. Reaction Conditions for wtKIT Assay

PDGFRα [2] = biological target: T1, PDGFRα; test: Caliper biochemical assay, PDGFRα; details: Table 6
In short: (§5)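 Mobility-shift readout: after EDTA quench, fluorescent peptide and product are resolved electrophoretically on a LabChip and measured by fluorescence. Reactions contain enzyme, carboxyfluorescein peptide, ATP, Mn^2+ and compound, run 3 h at 25° C; 100% inhibition control lacks enzyme.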

CSF-1R [3] = biological target: T2, CSF-1R (Homo sapiens, UniProt P07333); test: HTRF biochemical assay, CSF-1R; details: Table 4
T2 construct: purchased Invitrogen PV3249 (lot 662393N)
T2 sequence (P07333 20-972): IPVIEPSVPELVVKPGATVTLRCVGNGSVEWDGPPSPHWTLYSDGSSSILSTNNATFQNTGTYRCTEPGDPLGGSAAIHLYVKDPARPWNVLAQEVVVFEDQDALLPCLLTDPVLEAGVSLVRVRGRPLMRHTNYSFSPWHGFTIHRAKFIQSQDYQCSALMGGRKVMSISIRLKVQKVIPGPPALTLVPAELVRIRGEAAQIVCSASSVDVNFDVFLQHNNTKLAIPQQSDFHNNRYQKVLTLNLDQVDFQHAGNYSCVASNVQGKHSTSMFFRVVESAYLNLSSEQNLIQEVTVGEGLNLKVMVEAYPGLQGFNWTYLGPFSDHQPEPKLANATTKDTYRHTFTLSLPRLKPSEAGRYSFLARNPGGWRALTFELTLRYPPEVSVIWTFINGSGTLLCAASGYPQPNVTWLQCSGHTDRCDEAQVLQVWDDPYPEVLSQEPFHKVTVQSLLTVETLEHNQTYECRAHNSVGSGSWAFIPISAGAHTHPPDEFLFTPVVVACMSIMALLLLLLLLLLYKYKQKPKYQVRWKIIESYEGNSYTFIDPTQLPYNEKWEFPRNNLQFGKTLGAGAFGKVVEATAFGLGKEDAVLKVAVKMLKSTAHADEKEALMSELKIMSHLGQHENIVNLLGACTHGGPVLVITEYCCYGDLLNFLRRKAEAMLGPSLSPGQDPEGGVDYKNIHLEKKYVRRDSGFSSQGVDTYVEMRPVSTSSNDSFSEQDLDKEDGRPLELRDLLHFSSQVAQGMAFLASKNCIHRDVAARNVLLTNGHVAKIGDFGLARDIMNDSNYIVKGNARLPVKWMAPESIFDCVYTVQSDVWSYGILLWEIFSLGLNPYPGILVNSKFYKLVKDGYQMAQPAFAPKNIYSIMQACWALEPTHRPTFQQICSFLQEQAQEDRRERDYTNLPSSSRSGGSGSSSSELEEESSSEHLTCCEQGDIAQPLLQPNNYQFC
Method: as §1, §2, §3, §4

[4] = biological target: T3, BCRP (BCRP-MDCKII monolayer) (Homo sapiens, UniProt Q9UNQ0); test: MDCKII-BCRP bidirectional transport assay; assay type: in vitro ADME
T3 construct: host or cells: MDCKII (canine kidney) cells
T3 sequence (Q9UNQ0 1-655): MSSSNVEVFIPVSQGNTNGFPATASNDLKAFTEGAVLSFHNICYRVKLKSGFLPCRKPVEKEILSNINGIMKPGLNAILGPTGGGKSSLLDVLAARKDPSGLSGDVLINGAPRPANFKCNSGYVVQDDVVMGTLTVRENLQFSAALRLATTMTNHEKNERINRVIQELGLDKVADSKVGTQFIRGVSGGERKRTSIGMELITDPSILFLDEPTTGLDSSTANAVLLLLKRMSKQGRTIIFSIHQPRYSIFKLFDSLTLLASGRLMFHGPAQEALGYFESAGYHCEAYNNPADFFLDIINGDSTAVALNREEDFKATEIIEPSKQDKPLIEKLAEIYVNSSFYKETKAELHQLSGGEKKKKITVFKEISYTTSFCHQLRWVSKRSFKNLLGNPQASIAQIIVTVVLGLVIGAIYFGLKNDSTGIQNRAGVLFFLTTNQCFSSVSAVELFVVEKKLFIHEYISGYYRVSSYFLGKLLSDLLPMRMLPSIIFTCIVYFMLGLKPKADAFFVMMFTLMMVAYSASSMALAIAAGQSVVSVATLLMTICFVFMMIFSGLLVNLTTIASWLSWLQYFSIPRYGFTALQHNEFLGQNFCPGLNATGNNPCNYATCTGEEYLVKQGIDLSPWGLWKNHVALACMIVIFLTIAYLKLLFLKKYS
In short: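 Efflux ratios were derived from Papp values, alongside recovery, with compounds quantified by LC-MS/MS. Both directions were tested in duplicate across BCRP-MDCKII monolayers used on days 12–15. Incubation ran 120 min at 37° C, 5% CO2, after a 15 min preincubation in assay buffer.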

CSF-1R [5] = biological target: T2, CSF-1R; test: Caliper biochemical assay, CSF-1R; details: Table 6
In short: as §5

wtKIT [6] = biological target: T4, wtKIT (Homo sapiens, UniProt P10721); test: HTRF biochemical assay, wtKIT (phosphorylation of a peptide substrate); details: Table 4
T4 construct: 1888289AM in the reaction mixtures
T4 sequence (P10721 26-976): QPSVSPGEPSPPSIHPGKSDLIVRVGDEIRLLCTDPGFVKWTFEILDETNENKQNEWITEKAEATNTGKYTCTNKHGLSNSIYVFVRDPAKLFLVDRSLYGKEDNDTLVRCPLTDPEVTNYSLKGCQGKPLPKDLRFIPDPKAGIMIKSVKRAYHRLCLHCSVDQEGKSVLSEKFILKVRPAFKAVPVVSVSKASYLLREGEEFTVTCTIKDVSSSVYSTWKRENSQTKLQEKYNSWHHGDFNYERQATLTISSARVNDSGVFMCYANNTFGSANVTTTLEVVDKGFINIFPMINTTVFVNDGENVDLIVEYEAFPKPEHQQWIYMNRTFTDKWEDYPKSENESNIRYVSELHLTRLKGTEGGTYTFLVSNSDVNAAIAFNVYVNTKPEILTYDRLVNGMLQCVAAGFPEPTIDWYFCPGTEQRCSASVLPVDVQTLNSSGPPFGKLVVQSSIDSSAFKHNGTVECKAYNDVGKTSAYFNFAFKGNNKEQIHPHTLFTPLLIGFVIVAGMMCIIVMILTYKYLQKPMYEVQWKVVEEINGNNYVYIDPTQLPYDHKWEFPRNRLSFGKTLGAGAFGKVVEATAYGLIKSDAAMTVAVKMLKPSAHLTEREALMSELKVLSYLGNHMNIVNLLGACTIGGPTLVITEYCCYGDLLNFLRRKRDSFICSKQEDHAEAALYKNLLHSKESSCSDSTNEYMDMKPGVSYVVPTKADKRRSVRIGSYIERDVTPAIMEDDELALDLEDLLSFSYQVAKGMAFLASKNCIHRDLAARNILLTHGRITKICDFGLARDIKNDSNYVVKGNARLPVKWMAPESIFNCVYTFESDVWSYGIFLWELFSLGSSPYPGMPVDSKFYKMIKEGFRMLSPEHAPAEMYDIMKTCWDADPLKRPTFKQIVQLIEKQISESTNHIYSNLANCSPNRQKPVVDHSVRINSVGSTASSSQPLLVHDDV
In short: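 HTRF read-out of FAM-peptide (1 µM) phosphorylation after anti-phosphotyrosine antibody addition and EDTA quench. Reaction: 5.0 nM wtKIT, 400 µM ATP, 10 mM Mn2+, HEPES pH 7.5, 1% DMSO, 3 h, 25 °C; optional enzyme-compound preincubation; enzyme level set for 10-20% conversion.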

Kinetic solubility assay = assay type: physicochemical; details: kinetic solubility, 50 mM PB (pH 7.4), shaken 24 hours at RT
In short: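 Concentration in the filtrate was determined by UPLC-UV or HPLC-UV with a standard curve. Before that, compound (10 mM DMSO stock) in 50 mM PB at pH 7.4 was agitated 24 h at room temperature, then PTFE-filtered with centrifugation.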

wtKIT [7] = biological target: T4, wtKIT; test: Caliper biochemical assay, wtKIT; details: Table 6, read-out: KIT Biochemical IC50 avg
In short: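 Mobility-shift read-out: after EDTA stop, fluorescent peptide substrate and product resolved electrophoretically on LabChip 3000. Reaction ran 3 h at 25° C with 400 μM ATP, Mn^2+ cofactor, 5.0 nM wtKIT, 1 μM FAM-peptide, pH 7.5 HEPES buffer; no-enzyme wells defined full inhibition.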

[8] = test system: KIT phosphorylation in M-07e cells; test: Cell-based KIT phosphorylation in M-07e cells by pKIT ELISA; design: species or system human; details: SCF stimulation
Method: Exemplary compounds were tested for ability to inhibit KIT phosphorylation using M-07e cells as monitored by pKIT ELISA. M-07e cells are also represented as M-07E, M-07e, M07-e, M07e, Mo7e, MO7e, M07E and MO7E. Assay procedures and results are described below.
Part I—Procedures for Determining KIT Inhibition inM-07e Cells Using pKTT ELISA Reagents and consumables: • M-07e cells: Initially obtained from Accegen, cat #ABC-TC1313 • p-cKIT Capture ELISA antibody: anti-Human Phospho-CD117/c-kit, R&D cat #DYC3527-5 • Anti-pY-HIRP antibody: R&D cat #DYC3527-5 • 25× wash buffer: Quantikine ELISA Wash Buffer 1, R&D cat #WA126 • PBS: R&D cat #DY006 • 96 well ELISA plates: Clear Polystyrene Microplates, R&D Cat #DY990 • 96 well Tissue culture plates: Corning® 96 Well TC-Treated Microplates, cat #CLS3894 • RPMI medium: ATCC® RPMI-1640 Medium, Cat #30-2001 • FBS: Fetal Bovine Serum, certified, United States Gibco, Thermo-Fisher 16000044 • GM-CSF: Recombinant Human GM-CSF Protein, R&D cat #215-GM • SCF: Recombinant Human SCF Protein, R&D cat #255-SC
• 1. Prepare cells: • a. Culture M-07e cells in RPMI medium+20% serum+GM-CSF+penstrep • To make 50 mL of growth medium • i. 40 mL RPMI media • ii. 10 mL FBS • iii. 10 uL of GM-CSF (100 ug/mL stock) • iv. 0.5 mL pen strep (100×) • b. Harvest cells • c. Re-suspend cells in 100% RPMI media (without serum) to final concentration of 1 million cells/mL • d. Transfer 100 uL of cell solution to 11 columns of a 96 well flat bottom cell culture plate • e. Incubate cells over night at 37 C • 2. Prepare ELISA Plates: • a. Dilute capture antibody to concentration 4 ug/mL in PBS • b. Coat 96 well microplates with 100 uL of capture antibody • c. Seal plates and incubate at RT overnight • d. Wash plates with 300 uL of wash buffer • e. Repeat wash • f. Treat plates with 300 uL of blocking buffer at RT for 1 hour • 3. Addition of compounds: • a. Prepare compound dilutions in RPMI media • i. Top test concentration is 1 uM • ii. Serially dilute compounds 3× for a total of 8 concentrations • b. Add 10 uL of 10× compound dilutions to cells • i. No compounds added in column 11 (for controls) • c. Incubate cells with compounds for 2 hours at 37 C • d. Stimulate cells with SCF for 5 min at concentration of 100 ng/mL (final) • i. In column 11 stimulate top 4 wells. Leave bottom 4 wells unstimulated • e. Remove cell culture media with multichannel pipet • f. Add 110 uL of Lysis buffer to all wells • g. Incubate plates at RT for 30 min while shaking • 4. Transfer 100 uL of cell lysis to each prepared Elisa plate • 5. Add 100 uL of the standard pc-KIT dilutions to the standard wells in column 12 • a. Top concentration=2000 pg/mL • b. 2× dilutions • 6. Incubate ELISA plate with cell lysate for 2 hours at RT • 7. Wash Plate with wash buffer (wash 1) • 8. Repeat wash (wash 2) • 9. […] Add 100 uL of diluted anti-pY-HRP (1/1000 dilution in detection antibody dilution buffer) and incubate 2 hours at RT • 11. Wash plate with wash buffer (wash 1) • 12. Repeat wash (wash 2) • 13. Repeat wash (wash 3) • 14. Add 100 uL of substrate solution to each well • 15. Incubate plates 20 min • Note: Plate development is indicated by aqua color • 16. Add 50 uL of stop solution to each well • 17. Determine optical density on Bitek Synergy Neo2: • a. Make new experiment
Select absorbance 1 set to 450 nm

T1 sequence (P16234 24-1089): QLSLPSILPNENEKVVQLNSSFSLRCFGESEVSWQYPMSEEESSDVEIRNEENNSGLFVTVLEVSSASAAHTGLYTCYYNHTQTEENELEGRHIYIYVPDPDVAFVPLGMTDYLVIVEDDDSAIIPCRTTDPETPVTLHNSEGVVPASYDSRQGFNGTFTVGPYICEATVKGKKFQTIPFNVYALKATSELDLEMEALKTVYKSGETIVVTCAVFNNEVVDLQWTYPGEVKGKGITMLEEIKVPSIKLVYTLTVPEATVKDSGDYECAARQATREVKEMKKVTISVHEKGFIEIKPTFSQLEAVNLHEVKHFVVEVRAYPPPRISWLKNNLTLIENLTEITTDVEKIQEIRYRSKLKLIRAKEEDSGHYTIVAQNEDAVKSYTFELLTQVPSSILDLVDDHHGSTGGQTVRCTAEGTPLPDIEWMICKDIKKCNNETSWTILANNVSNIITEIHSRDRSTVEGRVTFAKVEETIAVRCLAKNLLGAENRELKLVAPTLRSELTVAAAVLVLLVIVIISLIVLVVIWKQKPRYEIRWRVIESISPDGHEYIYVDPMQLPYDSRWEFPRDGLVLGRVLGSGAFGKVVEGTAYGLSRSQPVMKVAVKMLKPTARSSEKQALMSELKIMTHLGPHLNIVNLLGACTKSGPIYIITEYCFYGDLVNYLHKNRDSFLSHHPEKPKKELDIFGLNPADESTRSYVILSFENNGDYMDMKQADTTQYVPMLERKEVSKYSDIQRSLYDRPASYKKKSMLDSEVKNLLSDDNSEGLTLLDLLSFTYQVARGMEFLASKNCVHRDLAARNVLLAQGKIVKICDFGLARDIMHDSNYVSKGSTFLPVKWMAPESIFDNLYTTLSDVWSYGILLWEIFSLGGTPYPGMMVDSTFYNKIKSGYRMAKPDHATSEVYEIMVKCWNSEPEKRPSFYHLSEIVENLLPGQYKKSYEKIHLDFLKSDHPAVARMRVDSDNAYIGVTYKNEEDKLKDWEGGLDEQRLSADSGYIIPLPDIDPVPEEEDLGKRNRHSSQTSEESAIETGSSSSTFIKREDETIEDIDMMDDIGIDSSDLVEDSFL

| SMILES | IC50 (PDGFRα [1]) [nM] | IC50 (PDGFRα [2]) [nM] | IC50 (CSF-1R [3]) [nM] | MDCK-BCRP: Efflux Ratio [4] | MDCK-BCRP: Papp A-B ([4]; apical to basolateral) | IC50 (CSF-1R [5]) [nM] | IC50 (wtKIT [6]) [nM] | Solubility (μM) (Kinetic solubility assay) | IC50 (wtKIT [7]) [nM] | IC50 [8] [nM] |
| --- | --- | --- | --- | --- | --- | --- | --- | --- | --- | --- |
| Cc1ccc(-c2noc([C@@H]3CCCO3)n2)cc1NC(=O)c1cnc2ccccn12 [Compound I-396] | 500 to 5000 | 500 to 5000 | 50 to 500 | 2.86 | 8.25 10^−6 cm/s | 50 to 500 | ≤ 50 | **** (a solubility less than or equal to 2 μM) | ≤ 50 | – |
| CCOc1ccc2ncc(C(=O)Nc3cc(-c4noc([C@H]5C[C@@H]5F)n4)ccc3C)n2c1 [Compound I-92] | 50 to 500 | – | ≤ 50 | – | – | – | ≤ 50 | **** (a solubility less than or equal to 2 μM) | – | ≤ 50 |
| Cc1ccc(-c2noc(C(F)C3CC3)n2)cc1NC(=O)c1cnc2ccccn12 (racemic) [Compound I-77] | 5000 to 30000 | – | 50 to 500 | – | – | – | ≤ 50 | **** (a solubility less than or equal to 2 μM) | – | ≤ 50 |
| Cc1ccc(-c2noc([C@H]3C[C@@H]3F)n2)cc1NC(=O)c1cnc2ccc(C3CNC3)cn12 [Compound I-106] | 50 to 500 | – | ≤ 50 | – | – | – | ≤ 50 | * (a solubility greater than 50 μM) | – | 50 to 500 |
| COCCS(=O)(=O)N1CC[C@H]1c1nc(-c2ccc(C)c(NC(=O)c3cnc4ccccn34)c2)no1 [Compound I-189] | 500 to 5000 | 500 to 5000 | 500 to 5000 | – | – | 50 to 500 | ≤ 50 | ** (a solubility greater than 10 μM and less than or equal to 50 μM) | 50 to 500 | – |
| Cc1ccc(-c2noc([C@H]3CC(F)(F)CN3)n2)cc1NC(=O)c1cnn2ccccc12 [Compound I-243] | 50 to 500 | 50 to 500 | 50 to 500 | – | – | 50 to 500 | ≤ 50 | * (a solubility greater than 50 μM) | ≤ 50 | – |
| Cc1nc(-c2ccc(C)c(NC(=O)c3cnc4cc(OCCCN(C(=O)OC(C)(C)C)C5COC5)ccn34)c2)no1 [Compound I-660] | 500 to 5000 | – | 50 to 500 | – | – | – | ≤ 50 | – | – | – |
| COCc1ccn2c(C(=O)Nc3cc(-c4noc(C)n4)ccc3F)cnc2c1 [Compound I-658] | 5000 to 30000 | – | 500 to 5000 | – | – | – | 500 to 5000 | – | – | – |
| Cc1nc(-c2ccc(F)c(NC(=O)c3cnn4cc(-c5ccn(C)n5)ccc34)c2)no1 [Compound I-657] | 500 to 5000 | – | 50 to 500 | – | – | – | ≤ 50 | – | – | – |
| Cc1cc(C)c(-c2noc(C3CC3(F)F)n2)cc1NC(=O)c1cnc2ccccn12 (racemic) [Compound I-129] | 500 to 5000 | 500 to 5000 | ≤ 50 | – | – | ≤ 50 | ≤ 50 | **** (a solubility less than or equal to 2 μM) | ≤ 50 | – |
| COCc1ccn2c(C(=O)Nc3cc(-c4noc(C(F)(F)F)n4)ccc3C)cnc2c1 [Compound I-664] | 500 to 5000 | – | 50 to 500 | – | – | – | 50 to 500 | – | – | – |
| COc1ccc2ncc(C(=O)Nc3cc(-c4noc(C[C@H](C)O)n4)ccc3C)n2c1 [Compound I-89] | 500 to 5000 | – | 50 to 500 | – | – | – | ≤ 50 | – | – | ≤ 50 |
| COCc1ccn2c(C(=O)Nc3cc(-c4noc(C)n4)ccc3C)cnc2c1 [Compound I-132] | 500 to 5000 | 500 to 5000 | 5000 to 30000 | – | – | 500 to 5000 | ≤ 50 | **** (a solubility less than or equal to 2 μM) | ≤ 50 | – |
| Cc1ccc(-c2noc(C3CC(O)C3)n2)cc1NC(=O)c1cnn2cc(-c3ccn(C)n3)ccc12 (centres unmarked) [Compound I-652] | 50 to 500 | – | ≤ 50 | – | – | – | ≤ 50 | – | – | – |
